Legend:
anti-CD3 induced IL-2 = assay: Anti-CD3 induced IL-2 production; assay type: in vivo, BALB/c mice; conditions: 12.5 mg/kg p.o.
Protocol: Six to 8 week old BALB/c mice were dosed p.o. with EXAMPLE 3 30 minutes prior to i.v. injection of 75 ng hamster anti-mouse CD3 antibody, 145-2C11 (PharMingen, San Diego, Calif.). Two hours after anti-CD3 injection mice were bled via cardiac puncture, serum was collected and assayed for IL-2 by ELISA (Endogen, Woburn, Mass.).

C57BL/6 mice = assay: Delayed type hypersensitivity (DTH), mBSA footpad challenge; assay type: in vivo
Protocol: A modification of a method described by Magram, J., Turek, C. W., Killeen, N; Immunity, 4: 471, 1996 and Magram, J., Sfarra, J., Connaughton, S., et al; Ann. NY Acad. Sci., 795: 60-70, 1996 was used. On day 0 C57BL/6 mice were immunized intradermal (i.d.) with 400 μg methylated bovine serum albumin (mBSA) (Sigma Chemical Co., St. Louis, Mo.) in a 1:1 emulsion with complete Freund's adjuvant (Difco Labs, Detroit, Mich.). […] On day 7 post immunization mice were challenged in one hind footpad with 100 μg of mBSA in 20 μl of PBS and in the opposite footpad with PBS alone. Footpad swelling was measured 24 hours after challenge using a vernier caliper.

[1] = system: BALB/c cardiac allograft in C57BL/6 recipients; assay: Neonatal cardiac transplantation; assay type: in vivo, C57BL/6 mice; conditions: for cardiac allograft survival on day 13 post transplantation: q.d. from day -1, visual observation and electrocardiogram
Text: Neonatal cardiac transplantation was done using a modification of methods described by Judd, K. P. & Trentin, J. J; Transplantation, 11(3): 298-302, 1971 and Fey, T. A., Krause, R. A., Hsieh, G. C., et al; J. Pharmacol. Tox. Methods, 39: 9-17, 1998 which are incorporated herein in their entirety.
Hearts from one to two day old C57BL/6 (isograft) and BALB/c (allograft) pups were removed aseptically and stored in cold PBS until transplant. Adult C57BL/6 mice were used as transplant recipients. Each recipient mouse was transplanted with an isograft heart in the left ear and an allograft heart in the right ear. Mice were anesthetized with avertin (0.25 cc/mouse, i.p.) (2.0 G 2,2,2-Tribromoethanol) (Aldrich, Milwaukee, Wis.) plus 2.0 ml 2-methyl-2-butanol (tert-amyl alcohol) (Aldrich, Milwaukee, Wis.) and protective ointment was applied to eyes after anesthesia. An incision was made in each ear pinnae using a scalpel blade and straight fine forceps were used to create a subcutaneous pocket in the ear. The donor heart was placed into the pocket using a second pair of forceps. On days 5-16, mice were anesthetized with isofluorane (Henry Schein, Melville, N.Y.) /oxygen and the heartbeats were visually assessed using a dissecting microscope. On the final day electrical activity of the cardiac tissue was monitored by electrocardiogram. The ears were then removed and the transplanted tissue were evaluated histologically for evidence of inflammation and necrosis (rejection).

[2] = system: BALB/c skin allograft in C57BL/6 recipient mice; assay: Skin transplantation; assay type: in vivo, C57BL/6 mice; conditions: q.d. day -1 to day 9
Text: Skin transplantation was done using a modification of a previously described method Chang, A. E. & Sugarbaker, P. H; Transplantation, 29: 381, 1980 and Sugarbaker, P. H. & Chang, A; J. Immunol. Methods, 31: 167, 1979. Tail skin was collected from BALB/c donors, scraped free of fat and fascia and maintained in PBS on ice until transplanted. Partial thickness wounds were created on the backs of C57BL/6 recipient mice and the graft was cut to exactly fit the wound bed. Grafts were adhered to the wound bed with a small amount of wound glue (Henry Schein, Melville, N.Y.), covered with petroleum jelly embedded gauze (Sherwood Medical, St. Louis, Mo.) and bandaged for 5 days. On day 6, bandages were removed and grafts were scored visually for necrosis from day 6 to day 10.

[3] = system: BALB/c islet grafts in diabetic C57BL/6 recipients; assay: Islet transplantation; assay type: in vivo, C57BL/6 mice; conditions: 12 mg/kg oral daily
Protocol: Chemical diabetes was induced in C57BL/6 mice using a single intraperitoneal dose of streptozocin (150 mg/kg) as previously described in Markees, T. G., Serreze, D. V., Phillips, N. E., et al; Diabetes, 48(5): 967-974, 1999. Mice with persistent hyperglycemia of >300 mg/dl were selected for experimentation as allograft recipients. Blood for plasma glucose was monitored thrice weekly (Glucose Analyzer2; Beckman Instruments, Fullerton, Calif.). Islets of Langerhans from BALB/c donors were isolated by collagenase digestion followed by density-gradient separation, as described previously Markees, T. G., Serreze, D. V., Phillips, N. E., et al; Diabetes, 48(5): 967-974, 1999. Approximately 20 islets/g body weight were transplanted into the renal subcapsular space C57BL/6 recipients. Oral treatments were provided daily beginning one day prior to islet transplant through day 28. Rejection was defined as the first of two consecutive days on which the plasma glucose was greater than or equal to 250 mg/dl. To verify the functionality of islet grafts, the graft bearing kidney was removed and placed in 10% formalin for histological analysis. Recurrence of hyperglycemia after graft removal was interpreted as evidence that the graft was the source of insulin in treated mice.

IgG1 alloantibody = assay: Alloantibody measurement, IgG1; assay type: in vivo, C57BL/6 mice; conditions: serum 21 days after cardiac allograft; dose not stated
Protocol: (§1) All sera were heat inactivated at 56° C. for 30 minutes and stored at −20° C. prior to analysis. BALB/c T cells were purified from spleen using MACS CD90 (Thy1.2) beads (Miltenyi Biotech, Auburn, Calif.). Briefly, 10^7 cells were resuspended in buffer containing 10 mg/ml of human IgG (Sigma, St. Louis, Mo.). […] The bead/cell mixture was then incubated for 15 minutes at 6-12° C., washed, and resuspended in 500 μl PharMingenStain Buffer (PharMingen , San Diego, Calif.) per 10^8 cells and run through an LS+ selection column. The isolated T cell suspension was adjusted to a concentration of 1×10^6 cells/ml. For flow cytometric analysis BALB/c T cells were incubated with recipient sera (1:50 for IgG2a analysis, 1:40 for IgG1 analysis). Following a 30 minute incubation at 4° C., the cells were washed and resuspended in either goat anti-mouse IgG1-phycoerythrin (PE) or anti-mouse IgG2a-PE antibody (Caltag, Burlingame, Calif.). Cells were analyzed using a Becton Dickinson FACScan (Mountain View, Calif.). Data are presented as mean and SEM of fluorescence intensity corrected for control (naive serum) fluorescence. Statistical analysis was performed using a two-tailed Student's t-test.

IgG2a alloantibody = assay: Alloantibody measurement, IgG2a; assay type: in vivo, C57BL/6 mice; conditions: serum 21 days after cardiac allograft; dose not stated
Protocol: as §1

## COc1cc(-c2nn(C3CCC(N4CCN(C)CC4)CC3)c3ncnc(N)c23)ccc1NC(=O)c1cc2ccccc2n1C (centres unmarked) [Example 3]
anti-CD3 induced IL-2
  inhibition of anti-CD3 induced IL-2: complete inhibition
C57BL/6 mice; treatment given only on days 7 and 8 (around the antigen challenge)
  inhibition of DTH: 65%
C57BL/6 mice; treatment p.o., q.d. from day -1 to day 8
  inhibition of footpad swelling 24 hours post challenge: 77%
[1]; 6 mg/kg p.o.
  cardiac allograft survival on day 13 post transplantation: 60%
[1]; 12 mg/kg p.o.
  cardiac allograft survival on day 13 post transplantation: 100%
[1]; Example 3 3 mg/kg p.o., q.d.
  Percent Survival Day 16 Post Transplant (cardiac allograft, electrocardiogram): 10%
[1]; compared to vehicle treated hearts
  histological evaluation of transplanted allograft hearts: decrease in peri- and intra-graft inflammation and necrosis
[2]; 6 mg/kg p.o.
  survival of skin allografts: 42%
[2]; 12 mg/kg p.o.
  survival of skin allografts: 90%
[3]
  histological evaluation of islet grafts: minimal intra-graft inflammation
[3]; day -1 through day 28
  glycemic state of islet graft recipients: normoglycemic
  maintenance of BALB/c islet cell grafts: 28 days
IgG1 alloantibody
  IgG1 alloantibody isotype production: completely inhibited
IgG2a alloantibody
  IgG2a alloantibody isotype production: completely inhibited

Reference: patent US20050008640A1, “Method of treating transplant rejection” (priority 2003, published 2005)
